{"source": "patent EP0167958A2", "about": "“Oral solid pharmaceutical form with sequential action for the administering of drugs with ulcerogenic side effect” (LABORATORIO ITALIANO BIOCHIMICO FARMACEUTICO LISAPHARMA …, priority 1984, dated 1986)", "system": "gastric mucosa", "experiment": "test of pylorus ligature in rats (ulcerating index, inhibition of FANS-induced gastric lesions)", "type": "in vivo, Charles River Wistar rats", "conditions": "p.o., pylorus-ligated rats, 6 hours", "method": "Several compositions containing sucralfate : FANS in weight ratios comprised within the range of from 1: 4 to 8 : 1 have been tested on rats by means of the test of pylorus ligature according to the technique Linda J. et al., J. Pharmac., 1978, 30, 244 - 246 \"Inhibitors of Gastric Lesions in the Rat\".\nThe testing has been carried out on Charles River Wis tar rats of 230 - 270 g of weight and in the number of 8 rats per each group. The rats, fasting from 15 hours, have been submitted to etheric anesthesia and then to the liga ture of the pylorus. The rats have been treated, immediate ly after the recovery, by means of gastric probe, with the FANS alone, with the FANS in the sucralfate-FANS form with sequential action according to the present invention, and by means of the administering of sucralfate first, and then, after a 10 minutes interval, of FANS.\nThe single active principles have been administered as aqueous suspension in sodium-CMC at 0.5% p.o.\nSix hours later than the intervention, the rats have been sacrificed and the stomach, after having been withdrawn, has been cut along the line of the greater curvature. The stomach, after having been slightly washed with bidistilled water has been spread out and mounted on a support for the'evaluation of induced ulceration. The alterations detected on the gastric mucosa have been quantified on the basis of their type and largeness, with a value ranging from 0 to 1 (ulcerating index, UI), according to the following empirical scale: • 0 = mucose not damaged (control submitted to surgical handling and to placebo) • 0.25 = diffused accentuated hyperemia • 0.50 = diffused erosion • 0.75 = diffused hemorrhagic ulceration • 1 = diffused hemorrhagic ulceration with perforation and damaging of the whole gastric mucosa.\nThe activity of the form of sucralfate and FANS with sequential action according to the invention has been expressed as percentage inhibition of the lesion relatively to that observed in the control group as treated with the ligature of pylorus and administering of FANS only, and com pared to that obtained from the contemporary administering of sucralfate and FANS. The ID 50 (Inhibiting Dosis 50) was computated by the probit method."}
{"substance": "3,4,5,6-tetra-(polyhydroxyalumino)-n-D-glu· copyranosyl sulphate - 2,3,4,5-tetra-(polyhydroxyalumino)-B-D-fructofuranoside sulphate [sucralfate]", "values": [{"measurement": "Inhibiting Dosis 50 of sucralfate for the ulcerogenic activity of some FANS", "setting": "Administering of the sucralfate-FANS form with sequential action, FANS: Diclofenac Na (50 mg/kg)", "value": 96.6, "unit": "mg"}, {"measurement": "Inhibiting Dosis 50 of sucralfate for the ulcerogenic activity of some FANS", "setting": "Administering of the sucralfate-FANS form with sequential action, FANS: Indomethacin (100 mg/kg)", "value": 97, "unit": "mg"}, {"measurement": "Inhibiting Dosis 50 of sucralfate for the ulcerogenic activity of some FANS", "setting": "Administering of the sucralfate-FANS form with sequential action, FANS: Sodium indoprofen betainate (200 mg/kg as indoprofen)", "value": 85.6, "unit": "mg"}, {"measurement": "Inhibiting Dosis 50 of sucralfate for the ulcerogenic activity of some FANS", "setting": "Contemporary administering of sucralfate and of FANS, FANS: Diclofenac Na (50 mg/kg)", "value": 157, "unit": "mg"}, {"measurement": "Inhibiting Dosis 50 of sucralfate for the ulcerogenic activity of some FANS", "setting": "Contemporary administering of sucralfate and of FANS, FANS: Indomethacin (100 mg/kg)", "value": 204, "unit": "mg"}, {"measurement": "Inhibiting Dosis 50 of sucralfate for the ulcerogenic activity of some FANS", "setting": "Contemporary administering of sucralfate and of FANS, FANS: Sodium indoprofen betainate (200 mg/kg as indoprofen)", "value": 206, "unit": "mg"}]}
